Measured values published in ChEMBL document CHEMBL1201862, “PubChem BioAssay data set” (2004).
Activity calls are given as the source filed them.

How the values were obtained:
Bcl-2-related protein A1 [1] = target: T1, Bcl-2-related protein A1 (Mus musculus, UniProt Q07440); assay: Bfl-1 inhibitors blocking BH3 peptide binding, confirmation, biochemical, TR-FRET, mouse Bfl-1 (AID 621);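 note: TR-FRET binding of GST-Bfl-1 to FITC-labelled Bid peptide via terbium antibody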
T1 sequence (Q07440 whole entry): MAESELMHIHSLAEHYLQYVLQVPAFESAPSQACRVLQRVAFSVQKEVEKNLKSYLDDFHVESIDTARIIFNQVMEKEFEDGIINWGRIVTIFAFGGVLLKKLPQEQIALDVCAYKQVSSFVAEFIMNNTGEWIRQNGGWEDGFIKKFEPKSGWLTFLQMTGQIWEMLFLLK

Bcl-2-related protein A1 [2] = target: T1, Bcl-2-related protein A1; assay: Bfl-1 binding inhibitors, SAR follow-up, biochemical, fluorescence polarization (AID 1070)
[3] = target: Glyceraldehyde-3-phosphate dehydrogenase (Homo sapiens, UniProt P04406)
[4] = inhibitors of Bluetongue virus cytopathic effect, confirmation, arbovirus, BSR cells (AID 1250); format: functional;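 note: protection from viral cytopathic effect measured as cell viability by ATP luminescence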
[5] = Counterscreen for IDE inhibitors: Luminescence-based cell-based high throughput dose response assay to identify compounds that are cytotoxic to HEK cells. [Related pubchem assays: 434962 (Primary screen (IDE inhibitors in singlicate)), 449730 (Counterscreen (Cytotoxicity in triplicate)), 435028 (Confirmation (IDE inhibitors in triplicate)) …; format: functional; settings: HEK293
Insulin-degrading enzyme = target: T2, Insulin-degrading enzyme (Homo sapiens, UniProt P14735); assay: Dose Response: Fluorescence polarization-based cell-based high throughput dose response assay for inhibitors of insulin-degrading enzyme (IDE). [Related pubchem assays: 434962 (Primary screen (IDE inhibitors in singlicate)), 449730 (Counterscreen (Cytotoxicity in triplicate)), 435028 (Confirmation (IDE inhibitors in triplicate)), 434984 (Summary …; format: functional
T2 sequence (P14735 whole entry): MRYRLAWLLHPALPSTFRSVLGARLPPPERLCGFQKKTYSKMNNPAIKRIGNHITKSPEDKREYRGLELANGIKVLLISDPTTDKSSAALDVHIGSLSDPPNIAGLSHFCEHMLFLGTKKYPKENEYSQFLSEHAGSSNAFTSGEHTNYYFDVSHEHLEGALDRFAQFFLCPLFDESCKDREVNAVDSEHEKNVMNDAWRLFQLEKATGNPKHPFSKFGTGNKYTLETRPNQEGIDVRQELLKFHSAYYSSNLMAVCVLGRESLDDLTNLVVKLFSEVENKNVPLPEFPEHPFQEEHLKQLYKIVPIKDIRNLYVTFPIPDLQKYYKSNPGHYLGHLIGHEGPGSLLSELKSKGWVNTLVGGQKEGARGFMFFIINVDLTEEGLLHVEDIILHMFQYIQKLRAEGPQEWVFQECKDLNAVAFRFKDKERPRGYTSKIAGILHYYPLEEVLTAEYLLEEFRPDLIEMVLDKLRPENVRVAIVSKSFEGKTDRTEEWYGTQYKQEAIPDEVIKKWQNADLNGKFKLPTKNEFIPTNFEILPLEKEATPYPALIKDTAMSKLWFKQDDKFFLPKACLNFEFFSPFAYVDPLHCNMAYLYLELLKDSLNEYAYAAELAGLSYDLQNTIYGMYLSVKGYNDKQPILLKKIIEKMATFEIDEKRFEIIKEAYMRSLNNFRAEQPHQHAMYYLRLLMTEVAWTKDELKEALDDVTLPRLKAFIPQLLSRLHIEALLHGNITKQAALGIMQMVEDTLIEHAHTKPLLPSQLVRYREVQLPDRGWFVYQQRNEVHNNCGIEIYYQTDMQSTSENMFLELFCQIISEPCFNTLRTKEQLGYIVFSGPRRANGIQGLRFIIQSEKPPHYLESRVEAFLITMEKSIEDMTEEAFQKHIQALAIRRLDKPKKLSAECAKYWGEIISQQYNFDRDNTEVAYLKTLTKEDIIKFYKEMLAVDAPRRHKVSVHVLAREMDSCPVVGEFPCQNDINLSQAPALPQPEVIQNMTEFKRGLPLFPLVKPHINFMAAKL

Estrogen receptor = target: T3, Estrogen receptor (Homo sapiens, UniProt P03372); assay: ERα–SRC-3 coactivator interaction inhibitors, confirmation, orthogonal assay, biochemical, ELISA, streptavidin-HRP readout (AID 1079)
T3 sequence (P03372 whole entry): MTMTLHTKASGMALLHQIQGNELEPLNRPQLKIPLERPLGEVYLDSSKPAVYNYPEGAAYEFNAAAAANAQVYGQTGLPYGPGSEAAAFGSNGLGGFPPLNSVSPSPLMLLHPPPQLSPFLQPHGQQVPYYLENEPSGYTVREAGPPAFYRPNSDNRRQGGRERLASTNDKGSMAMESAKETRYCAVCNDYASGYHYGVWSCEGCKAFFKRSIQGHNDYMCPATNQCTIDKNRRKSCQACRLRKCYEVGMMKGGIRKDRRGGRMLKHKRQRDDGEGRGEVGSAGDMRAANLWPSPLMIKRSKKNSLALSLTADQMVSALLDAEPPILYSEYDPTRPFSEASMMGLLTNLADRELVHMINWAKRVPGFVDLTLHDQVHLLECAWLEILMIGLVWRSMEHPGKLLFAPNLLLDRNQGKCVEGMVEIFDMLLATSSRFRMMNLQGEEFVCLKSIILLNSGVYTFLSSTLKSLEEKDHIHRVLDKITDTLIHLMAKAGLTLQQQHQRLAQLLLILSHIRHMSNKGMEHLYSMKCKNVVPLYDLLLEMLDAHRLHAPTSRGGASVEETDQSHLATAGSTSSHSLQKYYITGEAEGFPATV

[6] = target: Inward rectifier potassium channel 2 (Mus musculus, UniProt P35561); assay: Manual electrophysiological patch clamp assay for SAR compounds that inhibit/block inward-rectifying potassium ion channel Kir2.1. [Related pubchem assays: 1843 (Summary assay for Kir2.1 inhibitor assays.), 1672 (Primary HTS of 305616 compounds where 2592 were identified as active.)]; format: functional
[7] = target: Sphingosine 1-phosphate receptor 2 (Homo sapiens, UniProt O95136); assay: Dose Response Cell Based Assay for Agonists of the S1P2 Receptor of Purchased Analogues. [Related pubchem assays: 729, 843, 854, 736 ]; format: functional
[8] = Shn3 3'UTR reporter inhibitors, dose response, cell-based, Clone20 osteoblasts, firefly luciferase, cherry-picked (AID 624132); format: functional;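 note: firefly luciferase luminescence from reporter carrying the Shn3 3'UTR in osteoblasts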
Paired box protein Pax-8 = Paired box protein Pax-8 (Homo sapiens, UniProt Q06710); assay: inhibitors of PAX8-driven TPO luciferase reporter, dose response, RMG-I cells, cherry-pick (AID 687027); format: functional, cell-based;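 note: luciferase reporter driven by Pax8 target thyroperoxidase promoter measured by SteadyGlo luminescence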
HeLa = assay: Cytotoxicity counterscreen assay for transcriptional activators of heat shock protein 70 (Hsp70). [Related pubchem assays: 1203, 1252 ]; format: functional; settings: Homo sapiens
[9] = control 3'UTR Renilla luciferase suppression, dose response, counter-screen for Shn3 inhibitor project, cell-based, Clone20-Shn3RL, cherry-picked (AID 624133); format: functional
[10] = HepG2 cell cytotoxicity, dose response, cytotoxicity control for Shn3 inhibitor project, CellTiter-Glo, cherry-picked (AID 624134); format: functional, cell-based
[11] = target: T4, Microphthalmia-associated transcription factor (Homo sapiens, UniProt O75030); assay: TRPM1 promoter luciferase signal decrease, dose response, MITF inhibitor project, cell-based, SK-MEL-5, cherry-picked, set 3 (AID 493073); format: functional
T4 sequence (O75030 whole entry): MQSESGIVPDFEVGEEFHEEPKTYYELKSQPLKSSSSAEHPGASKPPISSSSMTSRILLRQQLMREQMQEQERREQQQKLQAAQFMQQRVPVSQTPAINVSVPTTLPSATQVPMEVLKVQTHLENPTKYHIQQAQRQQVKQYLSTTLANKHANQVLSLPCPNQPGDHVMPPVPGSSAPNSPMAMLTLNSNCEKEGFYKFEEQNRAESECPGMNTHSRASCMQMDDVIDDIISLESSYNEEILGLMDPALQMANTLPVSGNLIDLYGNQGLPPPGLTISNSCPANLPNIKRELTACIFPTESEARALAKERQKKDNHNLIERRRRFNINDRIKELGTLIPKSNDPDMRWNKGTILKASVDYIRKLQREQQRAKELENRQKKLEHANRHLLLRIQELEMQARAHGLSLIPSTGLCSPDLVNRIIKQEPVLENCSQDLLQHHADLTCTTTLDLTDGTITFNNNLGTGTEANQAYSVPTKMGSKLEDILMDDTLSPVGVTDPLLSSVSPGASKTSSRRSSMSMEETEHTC

HEK293 [12] = assay: cells; settings: Homo sapiens
[13] = microbe, parasite or virus in culture; format: functional; settings: Mycobacterium tuberculosis
[14] = A High Throughput Confirmatory Assay used to Identify Novel Compounds that Inhibit Mycobacterium Tuberculosis in the absence of Glycerol.; format: functional
HEK293 [15] = assay: cells; settings: Homo sapiens; remark: listed apart in the source
Bcl-2-like protein 10 = Bcl-2-like protein 10 (Homo sapiens, UniProt Q9HD36); assay: Biochemical TR3 FP assay of Bcl-B inhibitor potency, EC50 (AID 1243); format: functional
[16] = Luminescence Cell-Based Dose Confirmation to Identify Activators of 5'UTR Stem-Loop Driven Alpha-Synuclein mRNA Translation in H4 Neuroglioblastoma Cells. [Related pubchem assays: 1829 (Project Summary), 1814 (Primary HTS)]; format: functional
[17] = Luminescence Cell-Based Dose Response to Identify Activators of Luciferase Translation or Activity in H4-C Neuroglioblastoma Cells. [Related pubchem assays: 1829 (Project Summary), 1814 (Primary HTS)]; format: functional
[18] = Luminescence Cell-Based Dose Response HTS to Identify Activators of Luciferase Translation or Activity in H4 […] Cells. [Related pubchem assays: 1829 (Project Summary), 1814 (Primary HTS)]; format: functional
[19] = Luminescence Cell-Based Dose Response to Identify Activators of 5'UTR Stem-Loop Driven Prion Protein mRNA Translation in H4-C Neuroglioblastoma Cells. [Related pubchem assays: 1829 (Project Summary), 1814 (Primary HTS)]; format: functional
Ion channel NompC = Ion channel NompC (Danio rerio, UniProt Q7T1G6); assay: Fluorescence counterscreen assay for TRPML3 agonists: dose response cell-based high-throughput screening assay to identify agonists of the transient receptor potential channel N1 (TRPN1). [Related pubchem assays: 1526, 1424, 1448 ]; format: functional
Mucolipin-3 = Mucolipin-3 (Homo sapiens, UniProt Q8TDD5); assay: Dose response cell-based high-throughput screening assay for agonists of the transient receptor potential channel ML3 (TRPML3). [Related pubchem assays: 1526, 1424, 1448 ]; format: functional
BJ [20] = assay: cytotoxicity toward BJ-TERT-LT-ST fibroblasts, dose response, cell-based, RAS-independent, luminescence (AID 1935); format: functional; settings: Homo sapiens;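 note: BJ fibroblasts immortalized with TERT plus LT and ST oncogenes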
BJ [21] = assay: cytotoxicity toward Ras-transformed BJeLR fibroblasts, dose response, cell-based, alamar blue fluorescence, cherrypicked samples (AID 2631); format: functional; settings: Homo sapiens;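 note: confirmatory dose-response assay in RAS-dependent BJ fibroblasts engineered with TERT, LT and ST, with cytotoxicity read by fluorescence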
Vero = assay: cells; format: functional; settings: Chlorocebus sabaeus
[22] = Luminescence-based dose response cell-based high throughput screening assay for cytotoxic compounds using the IEC-6 intestinal epithelial cell line. [Related pubchem assays: 1858 (Summary AID.), 1825 (Counterscreen.), 1907 (Confirmation screen.)]; format: functional
BJ [23] = assay: cytotoxicity toward BJ-TERT fibroblasts, dose response, cell-based, RAS-independent, luminescence (AID 1933); format: functional; settings: Homo sapiens
BJ [24] = assay: cells; format: functional, cell-based; settings: Homo sapiens
[25] = cytotoxicity toward DRD oncogenic fibroblasts, dose response, cell-based, non-viral oncogenic, luminescence (AID 1934); format: functional; settings: Homo sapiens
[26] = target: Mothers against decapentaplegic homolog 3 (Homo sapiens, UniProt P84022); assay: SMAD3 transcription factor inhibitors, dose response (AID 715); format: functional
[27] = target: Protein-tyrosine kinase 2-beta (Homo sapiens, UniProt Q14289);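 note: potency of inhibitors of PYK2 kinase phosphorylation of poly-GT substrate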
[28] = target: Eukaryotic translation initiation factor 4E (Mus musculus, UniProt P63073); assay: eIF4E–eIF4G protein interaction inhibitors, dose response, biochemical, TR-FRET (AID 855); format: functional;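 note: potency for disrupting eIF4E binding to eIF4GI seen as loss of FRET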
Eukaryotic translation initiation factor 4E, sequence (P63073 whole entry): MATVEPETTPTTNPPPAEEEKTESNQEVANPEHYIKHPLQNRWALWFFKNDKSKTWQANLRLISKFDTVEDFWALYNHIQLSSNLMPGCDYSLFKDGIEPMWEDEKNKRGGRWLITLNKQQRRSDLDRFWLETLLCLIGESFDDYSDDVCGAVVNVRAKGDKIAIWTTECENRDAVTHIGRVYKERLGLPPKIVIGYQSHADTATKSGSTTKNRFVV

Ion channel NompC, sequence (Q7T1G6 whole entry): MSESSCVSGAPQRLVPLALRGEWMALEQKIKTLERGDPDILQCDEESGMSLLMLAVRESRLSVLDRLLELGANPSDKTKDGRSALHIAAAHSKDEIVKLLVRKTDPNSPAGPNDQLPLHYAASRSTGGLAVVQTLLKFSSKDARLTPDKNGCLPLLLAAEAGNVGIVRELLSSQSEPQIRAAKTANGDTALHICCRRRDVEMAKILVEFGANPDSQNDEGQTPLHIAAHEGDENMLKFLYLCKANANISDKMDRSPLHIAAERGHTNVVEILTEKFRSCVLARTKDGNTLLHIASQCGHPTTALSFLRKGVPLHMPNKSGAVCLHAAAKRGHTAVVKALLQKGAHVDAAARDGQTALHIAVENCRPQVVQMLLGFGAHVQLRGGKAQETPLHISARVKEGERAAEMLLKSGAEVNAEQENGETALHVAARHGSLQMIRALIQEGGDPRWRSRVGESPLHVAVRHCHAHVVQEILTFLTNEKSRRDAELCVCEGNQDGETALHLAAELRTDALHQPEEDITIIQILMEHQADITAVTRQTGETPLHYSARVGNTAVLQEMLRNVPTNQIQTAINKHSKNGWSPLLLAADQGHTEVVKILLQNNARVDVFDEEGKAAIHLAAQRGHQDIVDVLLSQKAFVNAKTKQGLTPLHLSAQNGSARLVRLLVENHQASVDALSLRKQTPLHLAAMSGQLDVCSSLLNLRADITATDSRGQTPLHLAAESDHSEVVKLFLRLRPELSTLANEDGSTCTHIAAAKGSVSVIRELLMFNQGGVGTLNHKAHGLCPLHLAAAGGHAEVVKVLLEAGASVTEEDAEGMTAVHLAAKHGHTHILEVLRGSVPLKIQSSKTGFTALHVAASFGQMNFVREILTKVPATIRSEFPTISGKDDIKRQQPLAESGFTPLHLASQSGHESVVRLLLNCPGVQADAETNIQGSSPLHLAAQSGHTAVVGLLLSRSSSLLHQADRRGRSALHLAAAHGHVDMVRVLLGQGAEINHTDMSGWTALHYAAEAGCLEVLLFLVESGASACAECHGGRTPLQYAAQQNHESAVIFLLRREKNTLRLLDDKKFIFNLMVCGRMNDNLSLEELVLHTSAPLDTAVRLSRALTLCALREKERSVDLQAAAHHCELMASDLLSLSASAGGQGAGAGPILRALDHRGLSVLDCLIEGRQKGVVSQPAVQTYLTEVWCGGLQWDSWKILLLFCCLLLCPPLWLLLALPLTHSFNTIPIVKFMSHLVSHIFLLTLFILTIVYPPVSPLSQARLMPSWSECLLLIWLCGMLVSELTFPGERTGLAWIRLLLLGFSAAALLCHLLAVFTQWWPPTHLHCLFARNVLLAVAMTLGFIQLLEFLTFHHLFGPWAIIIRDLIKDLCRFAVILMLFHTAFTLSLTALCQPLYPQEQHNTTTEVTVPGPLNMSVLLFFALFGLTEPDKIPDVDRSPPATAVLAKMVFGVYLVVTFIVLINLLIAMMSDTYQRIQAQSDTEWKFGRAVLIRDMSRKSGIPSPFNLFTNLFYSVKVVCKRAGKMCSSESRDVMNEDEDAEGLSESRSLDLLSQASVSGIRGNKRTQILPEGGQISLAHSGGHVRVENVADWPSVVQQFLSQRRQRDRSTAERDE
Mothers against decapentaplegic homolog 3, sequence (P84022 whole entry): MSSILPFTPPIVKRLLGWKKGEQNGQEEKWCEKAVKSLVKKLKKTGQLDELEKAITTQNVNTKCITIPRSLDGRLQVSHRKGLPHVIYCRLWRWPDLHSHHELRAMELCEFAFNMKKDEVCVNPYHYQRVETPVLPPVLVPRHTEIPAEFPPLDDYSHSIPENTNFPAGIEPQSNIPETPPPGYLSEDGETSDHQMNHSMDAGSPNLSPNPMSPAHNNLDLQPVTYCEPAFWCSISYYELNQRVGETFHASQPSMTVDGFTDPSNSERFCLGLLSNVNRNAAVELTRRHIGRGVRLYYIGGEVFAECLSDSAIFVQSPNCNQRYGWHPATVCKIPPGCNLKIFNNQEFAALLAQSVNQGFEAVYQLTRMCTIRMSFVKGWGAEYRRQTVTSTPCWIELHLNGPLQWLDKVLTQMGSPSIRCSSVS
Inward rectifier potassium channel 2, sequence (P35561 whole entry): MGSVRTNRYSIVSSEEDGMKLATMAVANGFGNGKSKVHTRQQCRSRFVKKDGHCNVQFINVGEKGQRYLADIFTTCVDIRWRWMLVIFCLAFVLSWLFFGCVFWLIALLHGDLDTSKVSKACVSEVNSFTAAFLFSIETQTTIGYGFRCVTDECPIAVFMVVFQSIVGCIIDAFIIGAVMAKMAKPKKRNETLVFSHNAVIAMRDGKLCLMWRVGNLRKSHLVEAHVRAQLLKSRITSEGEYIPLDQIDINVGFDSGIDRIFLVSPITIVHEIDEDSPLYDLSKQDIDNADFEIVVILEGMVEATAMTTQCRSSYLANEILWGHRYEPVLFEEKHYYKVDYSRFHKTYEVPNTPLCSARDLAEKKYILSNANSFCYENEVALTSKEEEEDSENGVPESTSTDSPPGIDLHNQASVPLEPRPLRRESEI
Sphingosine 1-phosphate receptor 2, sequence (O95136 whole entry): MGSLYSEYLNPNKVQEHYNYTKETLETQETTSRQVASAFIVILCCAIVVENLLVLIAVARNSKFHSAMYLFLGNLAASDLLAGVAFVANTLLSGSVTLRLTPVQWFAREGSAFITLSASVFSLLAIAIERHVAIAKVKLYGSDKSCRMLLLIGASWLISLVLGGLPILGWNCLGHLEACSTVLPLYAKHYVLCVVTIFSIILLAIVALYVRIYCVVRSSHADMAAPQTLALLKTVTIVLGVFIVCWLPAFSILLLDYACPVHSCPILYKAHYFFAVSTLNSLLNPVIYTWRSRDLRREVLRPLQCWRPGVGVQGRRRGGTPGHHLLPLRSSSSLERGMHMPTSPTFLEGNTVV
Mucolipin-3, sequence (Q8TDD5 whole entry): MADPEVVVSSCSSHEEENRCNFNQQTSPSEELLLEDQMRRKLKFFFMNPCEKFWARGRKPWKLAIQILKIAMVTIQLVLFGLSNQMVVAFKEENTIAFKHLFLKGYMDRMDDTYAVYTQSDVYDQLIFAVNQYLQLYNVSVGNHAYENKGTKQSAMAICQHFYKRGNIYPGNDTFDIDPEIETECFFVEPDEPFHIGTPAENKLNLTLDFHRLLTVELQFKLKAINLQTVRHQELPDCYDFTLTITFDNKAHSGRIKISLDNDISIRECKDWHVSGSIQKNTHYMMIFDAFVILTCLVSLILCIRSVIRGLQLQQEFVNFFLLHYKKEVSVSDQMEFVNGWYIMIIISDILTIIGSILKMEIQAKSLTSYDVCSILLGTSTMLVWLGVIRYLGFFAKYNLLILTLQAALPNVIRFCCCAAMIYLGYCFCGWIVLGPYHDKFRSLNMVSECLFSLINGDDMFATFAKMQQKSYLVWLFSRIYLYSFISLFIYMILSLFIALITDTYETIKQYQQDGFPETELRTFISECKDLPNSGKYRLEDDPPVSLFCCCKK
Protein-tyrosine kinase 2-beta, sequence (Q14289 whole entry): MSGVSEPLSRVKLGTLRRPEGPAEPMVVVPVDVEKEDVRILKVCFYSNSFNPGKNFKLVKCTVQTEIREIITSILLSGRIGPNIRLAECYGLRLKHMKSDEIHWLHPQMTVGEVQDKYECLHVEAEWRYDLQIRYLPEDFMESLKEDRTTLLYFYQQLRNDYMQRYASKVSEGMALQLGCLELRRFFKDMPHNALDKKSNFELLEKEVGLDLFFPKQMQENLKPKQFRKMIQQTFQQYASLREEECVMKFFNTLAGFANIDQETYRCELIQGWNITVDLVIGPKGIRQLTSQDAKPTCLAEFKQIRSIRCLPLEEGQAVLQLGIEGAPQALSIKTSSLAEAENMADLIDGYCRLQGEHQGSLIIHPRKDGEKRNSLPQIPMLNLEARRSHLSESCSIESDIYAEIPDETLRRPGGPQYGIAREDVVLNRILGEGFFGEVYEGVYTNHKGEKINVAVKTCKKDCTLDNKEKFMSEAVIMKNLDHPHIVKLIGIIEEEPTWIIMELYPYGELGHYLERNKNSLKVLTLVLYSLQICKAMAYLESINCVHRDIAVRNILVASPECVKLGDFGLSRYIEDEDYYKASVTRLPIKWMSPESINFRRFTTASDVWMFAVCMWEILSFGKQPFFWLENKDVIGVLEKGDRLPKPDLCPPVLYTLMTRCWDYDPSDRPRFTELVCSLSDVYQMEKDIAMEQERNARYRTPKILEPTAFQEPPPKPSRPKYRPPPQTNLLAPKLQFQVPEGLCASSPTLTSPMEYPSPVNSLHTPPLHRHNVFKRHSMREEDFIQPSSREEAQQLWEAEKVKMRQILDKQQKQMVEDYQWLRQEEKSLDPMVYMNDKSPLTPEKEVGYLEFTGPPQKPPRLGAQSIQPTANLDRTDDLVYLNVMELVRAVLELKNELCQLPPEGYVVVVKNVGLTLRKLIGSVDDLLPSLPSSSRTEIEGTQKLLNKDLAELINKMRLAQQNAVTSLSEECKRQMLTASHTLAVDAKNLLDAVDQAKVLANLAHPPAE
Paired box protein Pax-8, sequence (Q06710 whole entry): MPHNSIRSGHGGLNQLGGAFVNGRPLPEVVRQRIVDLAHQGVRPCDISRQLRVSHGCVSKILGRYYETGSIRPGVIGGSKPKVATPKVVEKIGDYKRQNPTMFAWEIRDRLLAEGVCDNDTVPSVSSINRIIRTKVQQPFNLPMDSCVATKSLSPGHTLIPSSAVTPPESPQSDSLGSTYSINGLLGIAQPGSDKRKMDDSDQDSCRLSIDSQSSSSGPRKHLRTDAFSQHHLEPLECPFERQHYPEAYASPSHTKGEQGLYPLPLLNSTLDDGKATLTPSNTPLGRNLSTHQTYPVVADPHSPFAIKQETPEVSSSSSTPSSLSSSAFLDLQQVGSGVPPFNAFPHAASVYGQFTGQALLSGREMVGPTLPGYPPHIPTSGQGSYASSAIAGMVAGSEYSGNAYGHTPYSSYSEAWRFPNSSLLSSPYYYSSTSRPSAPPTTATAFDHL

## COc1ccc(N2CCN(C3=C(Cl)C(=O)N(c4ccc(Cl)c(Cl)c4)C3=O)CC2)cc1
Bcl-2-related protein A1 [1]
  IC50: 6.79 µM (active)
Bcl-2-related protein A1 [2]
  IC50: 1.25 µM (active)
[3]
  IC50: > 100 µM (not active)

## CCCC1=NN2C(=N)/C(=C/c3c[nH]c4ccccc34)C(=O)N=C2S1
[4]
  IC50: 64.6 µM (active)

## COc1cc(/C=C2\SC(=N)N(c3ccc(F)cc3)C2=O)ccc1O
[5]
  IC50: 39.5 µM (not active)
Insulin-degrading enzyme
  IC50: 29.3 µM (not active)

## CC(C)(C)OC(=O)[C@@H](CCC(=O)N1CCN(c2ccc(C#N)cc2)CC1)n1c(=S)[nH]c2ccccc2c1=O
Estrogen receptor
  IC50: 0.08 µM (not active)

## COc1ccc(CNC2CCCc3ccccc32)cc1 (stereo unspecified)
[6]
  IC50: 3.59 µM (active)

## Cc1cc(C(=O)Cn2cnc3c2c(=O)n(C)c(=O)n3C)c(C)n1Cc1ccccc1
[7]
  EC50: > 30 µM (not active)

## CC(C)C(=O)N1CCN(c2ccc(NC(=O)c3ccc([N+](=O)[O-])o3)cc2Cl)CC1
[8]
  AC50: 0.954 µM (active)
Paired box protein Pax-8
  AC50: 3.25 µM (active)
HeLa
  CC50: 3.45 µM (active)
[9]
  AC50: 8.27 µM (active)
[10]
  AC50: 27.8 µM (active)
[11]
  AC50: 7.05 µM (active)

## CCCCC(=O)/C=C/n1c(=S)oc2ccccc21
HEK293 [12]
  EC50: > 2.21 µM (active)
[13]
  CC50: 19.8 µM (active)
[14]
  IC50: > 100 µM (active)
HEK293 [15]
  EC50: > 59.6 µM (inactive)

## O=C(O)c1ccc([N+](=O)[O-])c2c1NC(c1ccccc1)C1CC=CC21 (stereo unspecified)
Bcl-2-like protein 10
  EC50: 3.92 µM (active)

## C=CCSc1nnc2c3cccc(C)c3nc-2[nH]1
[16]
  EC50: 0.311 µM (active)
[17]
  EC50: 0.31 µM (active)
[18]
  EC50: < 0.1 µM (active)
[19]
  EC50: 0.317 µM (active)

## O=S(=O)(Nc1ccccc1N1CCCCC1)c1cccs1
Ion channel NompC
  EC50: > 29.9 µM (not active)
Mucolipin-3
  EC50: 2.3 µM (active)

## Cc1ccc(/C=N/NC(=O)c2[nH]nc3c2CCCC3)cc1
BJ [20]
  EC50: 0.37 µM (inconclusive)
BJ [21]
  EC50: < 0.104 µM (active)
Vero
  CC50: 0.24 µM (active)
[22]
  IC50: 0.32 µM (active)
BJ [23]
  EC50: 0.31 µM (inconclusive)
BJ [24]
  EC50: 0.382 µM (active)
[25]
  EC50: 0.711 µM (inconclusive)

## O=[N+]([O-])c1cc(/C=N\Nc2nccs2)ccc1O
[26]
  IC50: 30.9 µM (not active)
[27]
  IC50: 3.15 µM (active)
[28]
  IC50: 10.8 µM (active)
